Laboratory results taken from patent US20250041282A1, “METHOD FOR TREATING INFLAMMATORY PULMONARY DISEASE” (FU JEN CATHOLIC UNIVERSITY, priority 2021, published 2025).

Key:
RAW264.7 macrophages [1] = assay: ELISA of cytokines in cell culture media; format: cell-based, mouse; settings: pretreated 30 min, 100 ng/ml LPS 24 h; FIG. 5A/5B
Description: RANTES (RayBiotech), IL-1β and IL-6 (eBioscience, San Diego, CA, USA) concentrations in cell culture media and mouse serum were measured using ELISA kits according to the manufacturer's instructions. The plates were measured at […] using an Epoch microplate spectrophotometer (BioTek Instruments, Winooski, VT, USA). The concentrations of RANTES, IL-1β and IL-6 in the samples were determined by standard curves.
For identifying the potential signaling pathways which regulate the secretion of IL-6 and RANTES induced by LPS stimulation, RAW264.7 macrophages were pretreated with various kinase inhibitors for 30 min and then stimulated with/without 100 ng/ml LPS for 24 h; the cell culture media was harvested for ELISA assay. […] (FIG. 6A). To investigate whether FJU-C28 could mediate the transcriptional activity of NF-κB (p65), the translocation of NF-κB p65 was examined in LPS-stimulated macrophages.

RAW264.7 macrophages [2] = assay: Western blotting of LPS-stimulated macrophage lysates; format: cell-based, mouse; settings: LPS-induced RAW264.7; FIG. 6D
Excerpt: In brief, cell lysate was separated by 10% SDS-PAGE and transferred to a PVDF membrane (Hybond™-P, Amersham, Piscataway, NJ, USA). The blots were probed with anti-p38 (Catalogue Number: 8690P), anti-p-p38 (Thr180/Tyr182; Catalogue Number: 4511P), anti-ERK44/42 (Catalogue Number: 4695P), anti-p-ERK44/42 (Thr202/Tyr204; Catalogue Number: 4370P), anti-JNK (Catalogue Number: 9258P), anti-p-JNK (Thr183/Tyr185; Catalogue Number: 4668P), anti-p65 (Catalogue Number: 8242S), anti-STAT3 (Catalogue Number: 12640S), anti-p-STAT3 (Tyr705; Catalogue Number: 9145S) and anti-RANTES (Catalogue Number: 2989S) antibodies were provided by Cell Signaling Technology, Inc. (Danvers, MA, USA). Anti-Lamin A/C (Catalogue Number: 101127) antibodies were obtained from GeneTex, Inc. (San Antonio, TX, USA). Anti-β-Actin (Catalogue Number: SC-47778) and anti-COX2 (Catalogue Number: SC-1746) antibody was obtained from Santa Cruz Biotechnology, Inc. (Dallas, Texas, USA). The anti-iNOS (Catalog Number: 610329) antibody was obtained from BD transduction Lab. (San Jose, CA, USA). Bound antibodies were visualized by […] staining (Western Lighting Plus ECL; PerkinElmer, Wellesley, MA, USA) with autoradiography using FUJI Medical X-ray film (Fuji Corporation, Kofu, Yamanashi, Japan) or a MultiGel-21 multifunctional imaging system (TOPBIO, New Taipei, Taiwan). The intensity of the western blot bands was quantified by ImageJ software. The quantitative immunoblot data were normalized to the internal control protein and are expressed as the relative ratio of the treatment group to the control. The data represent the mean±S.D. of at least three independent experiments.

Row | Compound | LPS-induced expression of IL-6 (ELISA), kinase inhibitors (RAW264.7 macrophages [1]) | LPS-induced phosphorylation of STAT3 (RAW264.7 macrophages [2]) | LPS-induced expression of RANTES (ELISA), kinase inhibitors (RAW264.7 macrophages [1])
1 | COc1cccc(-c2cc(=O)c3ccccc3o2)c1N [PD98059] | not | slightly suppressed | –
2 | C[S+]([O-])c1ccc(-c2nc(-c3ccncc3)c(-c3ccc(F)cc3)[nH]2)cc1 (stereo not drawn) [SB203580] | suppressed | inhibited | suppressed
3 | CCOC(=O)C1=CCCC[C@H]1S(=O)(=O)Nc1ccc(F)cc1Cl [CLI-095] | suppressed | – | suppressed
4 | Cc1ccc(S(=O)(=O)/C=C/C#N)cc1 [BAY11-7082] | suppressed | – | suppressed
